Measured values: patent publication US20110105382A1, “CALMODULIN-BINDING PEPTIDES THAT REDUCE CELL PROLIFERATION IN CANCER AND SMOOTH MUSCLE PROLIFERATION DISEASES” (priority 2007, published 2011)
Where no end group is shown, it is not given here.

What was measured:
cyclin E/CDK2 = target: T1, cyclin E/CDK2 (Mus musculus, UniProt P0DP26); assay: Histone H1 in vitro kinase assay; assay type: biochemical; details: G1/S-synchronized mouse VSMC, each peptide 100 μM
T1 construct: endogenous in cells; host or cells: primary mouse aortic VSMC (G1/S-synchronized), immunoprecipitated complexes
Method: Immunoprecipitation and kinase assays. 5×10^6 SMC were harvested and re-suspended with 2 ml of lysis buffer (50 mM Tris (pH 7.4), 250 mM NaCl, 5 mM EDTA, 0.1% NP-40, 0.5 mM DTT, 0.1 mM Na3VO4, 5 μg/ml leupeptin, 5 μg/ml aprotinin, 2 mM PMSF, and 10% glycerol). After homogenization, cell lysates were clarified by centrifugation at 12×10^3 rpm, 4° C. for 30 min, and the supernatant was collected. An aliquot was taken for protein concentration determination using the BCA protein assay kit (Sigma). Cell extracts (200 μg) were then incubated for 2 hr at 4° C. with saturating concentrations of polyclonal antibodies (Abs). […]
For the in vitro kinase assays, 20 μl of kinase reaction mixture (20 mM Tris (pH 7.4), 5 mM MgCl2, 2.5 mM MnCl2, 1 mM DTT, 10 μg of C-terminal of human Rb protein (Upstate Biotech.) or 4 μg of histone-H1 (Upstate Biotech.) as substrates, 13 μM ATP, and 2.4 μCi [γ-^32P]ATP (Amersham Pharmacia)) was added to CDK2-, cyclin E-, or cyclin A-immunoprecipitated (IPd) complexes after removing the washing buffer from GammaBind™ G Sepharose resin. Based on the total calcium content of kinase reaction mixtures (as determined by inductively coupled plasma atomic emission spectrometry), amounts of EGTA required to yield final concentrations of free Ca^2+ ion (0, 100 or 500 nM) were calculated by WinMaxC (http://www.stanford.edu/˜cpatton/winmaxc2.html). […]

primary mouse aortic SMC [1] = assay type: cell-based; details: for proliferation of primary mouse aortic SMC (MTT), TAT-fused peptides: 100 μM, MTT after 2 days
Method: (§1) Cell culture conditions The isolation and culture of primary mouse aortic VSMC have was performed according to methods previously described (Afroze T, Yang L L, Wang C, Gros R, Kalair W, Hogue A N, Mungrue I N, Zhu Z, Husain M. Calcineurin-independent regulation of plasma membrane Ca2+ ATPase-4 in the vascular smooth muscle cell cycle. Am J Physiol Cell Physiol. July 2003; 285(1):C88-95). VSMCs were grown in DMEM (GIBCO/BRL, Gaithersburg, Md.) supplemented with 10% FBS (Hyclone, Logan, Utah), 50 ng/mL platelet-derived growth factor (PDGF, Sigma) and 1% penicillin-streptomycin (GIBCO/BRL). For serum starvation, cells were grown to 60% to 70% confluence, washed twice with PBS, and cultured in starvation medium (0.25% FBS-supplemented DMEM) for 72 hours to achieve Go arrest. Progression to G1/S was brought about by stimulation with 10% FBS and 50 ng/mL PDGF for 24 hours. Cells and reagents for primary human aortic VSMC culture were purchased from Cascade Biologics. Human VSMC(C-007-5C) were grown in Medium 231 with Smooth Muscle Growth Supplement (SMGS) S-007-25 and 1% penicillin-streptomycin (GIBCO/BRL). Cyclin E1/E2 double knockout mouse embryonic fibroblasts (MEF) were kindly provided by Dr. P. Sicinski (Harvard Medical School), and maintained in DMEM with 10% FBS (Hyclone) and 1% penicillin-streptomycin (GIBCO/BRL). Go arrest of MEF was achieved by starvation for 48 h in medium lacking FBS. Mouse embryonic fibroblasts (MEF) were maintained for normal culture in 10% FBS-supplemented DMEM. For the starvation of MEF, cells were cultured in starvation medium without FBS for 48 hours to achieve Go arrest. HeLa (human cervical cancer cell), Saos-2 (human osteosarcoma cell) and A549 (human lung cancer cell) were cultured in 10% FBS-supplemented DMEM.
(§2) MTT colorimetric survival assay. Active mitochondria of living cells can cleave MTT to produce formazan, the amount of which is directly proportional to the number of living cells. Cell survival was assessed (Denizot, 1986). Cells in 96-well plate were washed two times with PBS followed by 4 hr of incubation at 37° C. with 1 mg/ml of MTT (in phenol red free DMEM supplemented with 2 mM of L-glutamine & 1 mM of sodium pyruvate) in a reaction volume of 100 μl. After removing MTT solution, DMSO was added to dissolve formazan crystals. Plate was shaken for 5 min at 55° C. for complete dissolve. Dye absorbance in viable cells was measured at 570 nm with 630 nm as a reference wavelength. All experiments were repeated at least 3 times, and each experimental condition was repeated in at least quadruplicate wells in each experiment.
(§3) Nucleofection. For peptides delivery via Nucleofector technology, 1×10^6 cells were harvested, resuspended in 100 μl of Nucleofector solution (for VSMC: Cat. No. VPI-1004; for MEF: Cat. No.: VPD-1005, both provided by Amaxa GmBH, Köln, Germany) and mixed with 100 nmole (in 10 μl) of each peptide. The cell solution was transferred into a kit-provided cuvette and positioned into a Nucleofector device. Subsequently, the transfection was performed with a single pulse using the preprogrammed nucleofection program (A-33 for VSMC; T-20 for MEF) according to the manufacturer's recommendation. Following nucleofection, the cells were transferred into 96-well plate (2K or 5K cells per well for MTT assay) or T25 culture flasks (for FACS analysis) containing pre-warmed stem cell medium using kit-provided plastic pipettes to prevent cell damage and the cells were cultured at 37° C. in 5% CO2.

primary mouse aortic SMC [2] = assay: Lactate dehydrogenase (LDH) cytotoxicity assay; assay type: cell-based; details: nucleofection, 1 mM, asynchronized cells
Method: Lactate dehydrogenase (LDH) assay. To measure the level of cytotoxicity, LDH based in vitro toxicology assay kit (Sigma, Cat. No.: TOX-7) was used (Legrand, 1992). After nucleofection of peptides, 10^6 cells were grown on 24-well plate in the presence of phenol red free DMEM. 3 days later, 500 μl of cell culture media was collected from each well for assay followed by centrifugation (12,000 rpm, 30 min, at 4° C.) to remove any cell debris completely. Subsequent procedures for enzymatic assay were performed according to manufacture's protocol.
as §3, with “Following nucleofection, the cells were transferred into 96-well plate (2K or 5K cells per well for MTT assay) or T25 culture flasks (for FACS analysis) containing pre-warmed stem cell medium using kit-provided plastic pipettes to prevent cell damage and the cells were cultured at 37° C. in 5% CO2.” left out

[3] = tested on: mouse carotid artery injury model; assay: Mouse carotid artery injury model (wire denudation); assay type: in vivo; details: truncated peptides, arteries harvested 14 days following injury
Method: Injury of mouse carotid arteries (wire denudation) and local administration of CBS peptide. The mice (8-12 weeks, 20-25 g) were anesthetized with i.p. Ketamine (100 mg/kg, MTC Pharmaceuticals, Cambridge, ON, Canada) and Xylazine (10 mg/kg, Bayer Inc., Etobicoke, ON, Canada). Surgical procedures were performed under a dissecting microscope (MZ6 Leica, Heerbrugg, Switzerland). The left carotid artery was exposed via a midline incision on the ventral side of the neck. The bifurcation of the carotid artery was located and two ligatures were placed around the external carotid artery. This vessel was then tied off with the distal ligature. […] An incision hole is made between the two ligatures of external carotid artery, through which the denudation device is introduced. This device consists of a curved flexible copper wire (0.3 mm diameter) which is passed down to the common carotid artery, and under rotation, passed along this segment four times. The wire was then removed, and the external carotid artery was tied off proximal to the incision hole with the proximal ligature. […]
Tissue processing and analysis. […] Images were analyzed by planimetry using Image J software. […] Medial mass was calculated subtracting the luminal from whole area. […]

[4] = tested on: Saos-2 (human osteosarcoma); assay: MTT proliferation assay, Saos-2; assay type: cell-based; details: 100 μM, MTT after 2 days
Method: as §1, §2

[5] = tested on: A549 (human lung cancer cell); assay: MTT proliferation assay, A549; assay type: cell-based; details: 100 μM, MTT after 2 days
Method: as §1, §2

[6] = tested on: HeLa (human cervical cancer cell); assay: MTT proliferation assay, HeLa; assay type: cell-based; details: 100 μM, MTT after 2 days
Method: as §1, §2

[7] = tested on: primary human aortic VSMC; assay: 3H-thymidine incorporation assay, human aortic VSMC; assay type: cell-based; details: 10 and 100 μM for 1.0 h, 72 h after treatment
Method: Cell culture conditions The isolation and culture of primary mouse aortic VSMC have was performed according to methods previously described (Afroze T, Yang L L, Wang C, Gros R, Kalair W, Hogue A N, Mungrue I N, Zhu Z, Husain M. Calcineurin-independent regulation of plasma membrane Ca2+ ATPase-4 in the vascular smooth muscle cell cycle. Am J Physiol Cell Physiol. July 2003; 285(1):C88-95). VSMCs were grown in DMEM (GIBCO/BRL, Gaithersburg, Md.) supplemented with 10% FBS (Hyclone, Logan, Utah), 50 ng/mL platelet-derived growth factor (PDGF, Sigma) and 1% penicillin-streptomycin (GIBCO/BRL). For serum starvation, cells were grown to 60% to 70% confluence, washed twice with PBS, and cultured in starvation medium (0.25% FBS-supplemented DMEM) for 72 hours to achieve Go arrest. Progression to G1/S was brought about by stimulation with 10% FBS and 50 ng/mL PDGF for 24 hours. Cells and reagents for primary human aortic VSMC culture were purchased from Cascade Biologics. […]
^3H-thymidine incorporation proliferation assay. […] Cells were grown at 37° C. and analyzed at 24, 48 and 72 h after ^3H-thymidine exposure. […] Solubilized contents of wells were removed and added to 2.5 ml of scintillation fluid (ReadySafe™ Cocktail, Beckman Coulter, Product No. 141349). Radioactivity was measured in a scintillation counter (Beckman Coulter, LS 6500).

Row | Sequence | proliferation of Saos-2 cells (MTT) [4] | proliferation of primary mouse aortic SMC (MTT), TAT-fused peptides (primary mouse aortic SMC [1]) | proliferation of A549 cells (MTT) [5] | proliferation of HeLa cells (MTT) [6] | other results
1 | GGAEFSARSRKRKANVTVFLQD [CBS] |  |  |  |  | inhibition of in vitro cyclin E/CDK2 activity (cyclin E/CDK2): 40%; maximum level of inhibition of VSMC proliferation (primary mouse aortic SMC [1]): 50%; cell death (LDH assay) (primary mouse aortic SMC [2]): did not cause any increase in cell death
2 | RRRQRRKKRGAEFSARSRKRKANVTVFL (N-terminal TAT peptide; listed as Homo sapiens) [TAT-SEQ ID NO:2 (#3-20)] | most powerfully and efficiently | most powerfully and efficiently | most powerfully and efficiently | most powerfully and efficiently | anti-proliferative effect on the site of injury (media mass, I/M ratio) [3]: anti-proliferative effect
3 | RRRQRRKKRGVDIDQARLKMLGQTRPHDDDDC [TAT-NC, reference compound] |  |  |  |  | 3H-thymidine incorporation (S-phase entry), human aortic VSMC [7]: not
4 | RRRQRRKKRGEFSARSRKRKANVTVF (N-terminal TAT peptide; listed as Homo sapiens) [TAT-SEQ ID NO:2 (#4-19)] | started to lose its proliferative function | started to lose its proliferative function | started to lose its proliferative function | started to lose its proliferative function | 
5 | FAFGRQVNKARSEKALGVSDRT [scrambled, reference compound] |  |  |  |  | proliferation of primary mouse aortic SMC (MTT) (primary mouse aortic SMC [1]; peptide delivered via nucleofection): no effect
6 | RRRQRRKKRG [TAT domain, reference compound] | no anti-proliferative effect | no anti-proliferative effect | no anti-proliferative effect | no anti-proliferative effect | 
7 | RRRQRRKKRGVTVFL (N-terminal TAT cell-penetrating peptide; listed as Homo sapiens) [TAT-SEQ ID NO:2(#16-20)] |  |  |  |  | anti-proliferative effect on the site of injury (media mass, I/M ratio) [3]: anti-proliferative effect
